Reference: PubChem BioAssay AID2060887 (Molecular Pharmacology Branch, DTP, NCI, 2025)

Tested on: 782815-120-R-J1-PDC complex spheroid viability
Assay: Anticancer human tumor 782815-120-R-J1-PDC patient-derived colon adenocarcinoma cell line growth inhibition [RAS]
Settings: for IC50: curve of first compound; for viability, T/C: stronger effect = lower value
How it was run: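 Agents were tested in combination matrices in half-log decrements from a top concentration at or near clinical Cmax (10 microM if undetermined). Targets were multi-cell spheroids of tumour lines plus HUVEC and MSC stromal cells.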

[1] = second compound 0.00316 µM, first compound 0.0316 µM
[2] = second compound 0.00316 µM, first compound 0.1 µM
[3] = second compound 0.00316 µM, first compound 0.316 µM
[4] = second compound 0.00316 µM, first compound 1 µM
[5] = second compound 0.00316 µM, first compound 3.16 µM
[6] = second compound 0.00316 µM, first compound 10 µM
[7] = second compound 0.01 µM, first compound 0.0316 µM
[8] = second compound 0.01 µM, first compound 0.1 µM
[9] = second compound 0.01 µM, first compound 0.316 µM
[10] = second compound 0.01 µM, first compound 1 µM
[11] = second compound 0.01 µM, first compound 3.16 µM
[12] = second compound 0.01 µM, first compound 10 µM
[13] = second compound 0.0316 µM, first compound 0.0316 µM
[14] = second compound 0.0316 µM, first compound 0.1 µM
[15] = second compound 0.0316 µM, first compound 0.316 µM
[16] = second compound 0.0316 µM, first compound 1 µM
[17] = second compound 0.0316 µM, first compound 3.16 µM
[18] = second compound 0.0316 µM, first compound 10 µM
[19] = second compound 0.1 µM, first compound 0.0316 µM
[20] = second compound 0.1 µM, first compound 0.1 µM
[21] = second compound 0.1 µM, first compound 0.316 µM
[22] = second compound 0.1 µM, first compound 1 µM
[23] = second compound 0.1 µM, first compound 3.16 µM
[24] = second compound 0.1 µM, first compound 10 µM
[25] = second compound 0.316 µM, first compound 0.0316 µM
[26] = second compound 0.316 µM, first compound 0.1 µM
[27] = second compound 0.316 µM, first compound 0.316 µM
[28] = second compound 0.316 µM, first compound 1 µM
[29] = second compound 0.316 µM, first compound 3.16 µM
[30] = second compound 0.316 µM, first compound 10 µM
[31] = second compound 1 µM, first compound 0.0316 µM
[32] = second compound 1 µM, first compound 0.1 µM
[33] = second compound 1 µM, first compound 0.316 µM
[34] = second compound 1 µM, first compound 1 µM
[35] = second compound 1 µM, first compound 3.16 µM
[36] = second compound 1 µM, first compound 10 µM
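Further: spheroids exposed to compounds for 7 days before reading.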
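Wherever viability, T/C is given: 100% = DMSO vehicle control viability.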

In the case of `CC(=O)OC12COC1CC(O)C1(C)C(=O)C(O)C3=C(C)C(OC(=O)C(O)C(NC(=O)OC(C)(C)C)c4ccccc4)CC(O)(C(OC(=O)c4ccccc4)C21)C3(C)C` (centres undefined) + C=CC(=O)N1CCN(c2nc(OCC3CCCN3C)nc3c(F)c(-c4nc(N)cc(C)c4C(F)(F)F)c(Cl)cc23)C(C)C1, the IC50 (second compound 0.00316 µM) is reported as under 0.0316 µM, the IC50 (second compound 0.01 µM) is reported as under 0.0316 µM and the IC50 (second compound 0.0316 µM) is reported as under 0.0316 µM. The IC50 (second compound 0.1 µM) was under 0.0316 µM, the IC50 (second compound 0.316 µM) was under 0.0316 µM and the IC50 (second compound 1 µM) was under 0.0316 µM. The viability, T/C [1] was 33.6%, the viability, T/C [2] was 31.1% and the viability, T/C [3] was 25.6%. For the same compound, the viability, T/C [4] was 23.6%, the viability, T/C [5] was 28.3% and the viability, T/C [6] was 33.2%. The viability, T/C [7] was 34.1%, the viability, T/C [8] was 32% and the viability, T/C [9] was 25.7%. For the same compound, the viability, T/C [10] was 22.3%, the viability, T/C [11] was 25% and the viability, T/C [12] was 34.1%. The viability, T/C [13] was 40%, the viability, T/C [14] was 24.2% and the viability, T/C [15] was 23.6%. It also gave a viability, T/C [16] of 27.6%, a viability, T/C [17] of 23.6% and a viability, T/C [18] of 34.7%. For the same compound, the viability, T/C [19] was 36.8%, the viability, T/C [20] was 30.4% and the viability, T/C [21] was 20.3%. For the same compound, the viability, T/C [22] was 22.9%, the viability, T/C [23] was 25% and the viability, T/C [24] was 29.2%. It also gave a viability, T/C [25] of 37.4%, a viability, T/C [26] of 27.4% and a viability, T/C [27] of 25%. The viability, T/C [28] was 23.5%, the viability, T/C [29] was 28.4% and the viability, T/C [30] was 29.6%. The viability, T/C [31] was 38.1%, the viability, T/C [32] was 26.9% and the viability, T/C [33] was 27.4%. The viability, T/C [34] was 23.6%, the viability, T/C [35] was 27.5% and the viability, T/C [36] was 33.3%.

Work on `CCC(CC)c1cc(NC2CCC(N)C2)n2nccc2n1` (centres undefined) + C=CC(=O)N1CCN(c2nc(OCC3CCCN3C)nc3c(F)c(-c4nc(N)cc(C)c4C(F)(F)F)c(Cl)cc23)C(C)C1 yielded an IC50 (second compound 0.00316 µM) of 2.28 µM, an IC50 (second compound 0.01 µM) of 2.32 µM and an IC50 (second compound 0.0316 µM) of 2.45 µM. For the same compound, the IC50 (second compound 0.1 µM) was 2.16 µM, the IC50 (second compound 0.316 µM) was 2.54 µM and the IC50 (second compound 1 µM) was 2.28 µM. For the same compound, the viability, T/C [1] was 108%, the viability, T/C [2] was 111% and the viability, T/C [3] was 106%. The viability, T/C [4] was 98.3%, the viability, T/C [5] was 31% and the viability, T/C [6] was 1.4%. It also gave a viability, T/C [7] of 105%, a viability, T/C [8] of 107% and a viability, T/C [9] of 108%. For the same compound, the viability, T/C [10] was 104%, the viability, T/C [11] was 30.4% and the viability, T/C [12] was 1.14%. For the same compound, the viability, T/C [13] was 101%, the viability, T/C [14] was 103% and the viability, T/C [15] was 95.8%. The viability, T/C [16] was 115%, the viability, T/C [17] was 34.6% and the viability, T/C [18] was 1.3%. For the same compound, the viability, T/C [19] was 102%, the viability, T/C [20] was 98.2% and the viability, T/C [21] was 104%. For the same compound, the viability, T/C [22] was 98.4%, the viability, T/C [23] was 26.2% and the viability, T/C [24] was 1.7%. The viability, T/C [25] was 103%, the viability, T/C [26] was 101% and the viability, T/C [27] was 95.5%. The viability, T/C [28] was 106%, the viability, T/C [29] was 37.9% and the viability, T/C [30] was 1.49%. It also gave a viability, T/C [31] of 98%, a viability, T/C [32] of 104% and a viability, T/C [33] of 103%. For the same compound, the viability, T/C [34] was 100%, the viability, T/C [35] was 29.9% and the viability, T/C [36] was 2.19%.
